Assay results: the NIST ThermoML archive (doi:10.1021/je7000733)
± gives the expanded uncertainty stated by the source.

Assays:
[1] = refractive index (Na D-line) (dimensionless); details: 293.1 K; 101.33 kPa; Liquid; Standard Abbe refractometry
[2] = Liquid; for mass density: 293.1 K, 101.33 kPa, Vibrating tube method; for Normal boiling temperature: Fisher boiling point apparatus

refractive index [1] | mass density [2] | Normal boiling temperature [2] | SMILES
1.37201 ± 0.0007 | 1044.3 ± 0.27 kg/m3 | 118.00 ± 0.2 °C | CC(=O)O [acetic acid]
1.42014 ± 0.0007 | 1040.22 ± 0.27 kg/m3 | 217.70 ± 0.2 °C | CCOC(=O)CCC(=O)OCC [diethyl butanedioate]
1.42414 ± 0.00078 | 1022.04 ± 0.88 kg/m3 | 236.50 ± 0.2 °C | CCOC(=O)CCCC(=O)OCC [diethyl glutarate]
1.42725 ± 0.0007 | 1007.63 ± 0.24 kg/m3 | 245.20 ± 0.2 °C | CCOC(=O)CCCCC(=O)OCC [diethyl hexanedioate]
